Assay results published in patent US7928093B2, “Amino-propanol derivatives” (Novartis AG, priority 2004, dated 2011).
pEC50: −log10 of the molar value.

Key:
[1] = system: peripheral blood lymphocytes; assay: Blood lymphocyte depletion in vivo; conditions: rats, p.o., after 6 h
Description: B. In Vivo: Blood Lymphocyte Depletion
A compound of formula I or the vehicle is administered orally by gavage to rats. Tail blood for hematological monitoring is obtained on day −1 to give the baseline individual values, and at 2, 6, 24, 48 and 72 hours after application. In this assay, the compounds of formula I deplete peripheral blood lymphocytes when administered at a dose of 0.03 to 3 mg/kg. For example, following results are obtained: depletion of peripheral blood lymphocytes by more than 50%.

[2] = molecular target: T1, human S1P receptor EDG-6 (S1P4) (Homo sapiens, UniProt O95977); assay: S1P receptor profiling, GTP[γ-35S] binding SPA; format: biochemical; parameters: key to S1P4 mode of action: Agon = agonist; conditions: for pEC50: membranes of transfected CHO or RH7777 cells
T1 construct: expressed in transfected cells
T1 sequence (O95977 1-384): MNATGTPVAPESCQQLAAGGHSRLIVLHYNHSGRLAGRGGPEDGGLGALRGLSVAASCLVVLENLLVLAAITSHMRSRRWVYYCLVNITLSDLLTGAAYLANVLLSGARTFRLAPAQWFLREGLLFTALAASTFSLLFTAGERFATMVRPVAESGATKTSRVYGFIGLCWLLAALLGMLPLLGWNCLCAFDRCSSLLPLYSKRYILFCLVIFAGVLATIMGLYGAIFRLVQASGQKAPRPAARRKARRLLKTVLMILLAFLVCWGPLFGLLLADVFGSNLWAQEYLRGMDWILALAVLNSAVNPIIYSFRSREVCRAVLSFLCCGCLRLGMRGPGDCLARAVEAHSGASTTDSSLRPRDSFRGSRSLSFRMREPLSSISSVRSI
Description: (§1) Sphingosine-1-phosphate (S1P) Receptor Profiling
(§2) Agonist activities of compounds are tested on the human S1P receptors EDG-1 (S1P1), EDG-3 (S1P3), EDG-5 (S1P2), EDG-6 (S1P4) and EDG-8 (S1P5). […] The assay technology used is SPA (scintillation proximity based assay). Briefly, DMSO dissolved compounds are serially diluted and added to SPA-bead (Amersham-Pharmacia) immobilised SIP receptor expressing membrane protein (10-20 μg/well) in the presence of 50 mM Hepes, 100 mM NaCl, 10 mM MgCl2, 10 μM GDP, 0.1% fat free BSA and 0.2 nM GTP [γ-^35S] (1200 Ci/mmol). After incubation in 96 well microtiterplates at RT for 120 min, unbound GTP [γ-^35S] is separated by a centrifugation step. Luminescence of SPA beads triggered by membrane bound GTP [γ-^35S] is quantified with a TOPcount plate reader (Packard). EC50s are calculated using standard curve fitting software. In this assay, the compounds of formula I have a binding affinity to S1P1 receptor <50 nM.

[3] = molecular target: T2, human S1P receptor EDG-8 (S1P5) (Homo sapiens, UniProt Q9H228); assay: S1P receptor profiling, GTP[γ-35S] binding SPA; format: biochemical; parameters: key to S1P5 mode of action: Agon = agonist; conditions: for pEC50: membranes of transfected CHO or RH7777 cells
T2 construct: expressed in transfected cells
T2 sequence (Q9H228 whole entry): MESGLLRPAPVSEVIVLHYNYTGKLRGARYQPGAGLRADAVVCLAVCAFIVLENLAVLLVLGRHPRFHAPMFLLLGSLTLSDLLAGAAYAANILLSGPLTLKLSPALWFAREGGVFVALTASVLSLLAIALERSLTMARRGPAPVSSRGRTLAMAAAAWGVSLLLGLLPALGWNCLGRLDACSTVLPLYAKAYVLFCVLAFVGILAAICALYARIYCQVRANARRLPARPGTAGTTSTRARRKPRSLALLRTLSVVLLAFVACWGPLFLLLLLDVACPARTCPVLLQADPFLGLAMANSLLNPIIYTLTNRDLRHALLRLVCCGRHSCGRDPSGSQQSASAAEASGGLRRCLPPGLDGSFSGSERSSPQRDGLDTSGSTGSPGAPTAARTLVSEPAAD
Description: as §1, §2

[4] = molecular target: T3, human S1P receptor EDG-3 (S1P3) (Homo sapiens, UniProt Q99500); assay: S1P receptor profiling, GTP[γ-35S] binding SPA; format: biochemical; parameters: key to S1P3 mode of action: Agon = agonist; conditions: for pEC50: membranes of transfected CHO or RH7777 cells
T3 construct: expressed in transfected cells
T3 sequence (Q99500 whole entry): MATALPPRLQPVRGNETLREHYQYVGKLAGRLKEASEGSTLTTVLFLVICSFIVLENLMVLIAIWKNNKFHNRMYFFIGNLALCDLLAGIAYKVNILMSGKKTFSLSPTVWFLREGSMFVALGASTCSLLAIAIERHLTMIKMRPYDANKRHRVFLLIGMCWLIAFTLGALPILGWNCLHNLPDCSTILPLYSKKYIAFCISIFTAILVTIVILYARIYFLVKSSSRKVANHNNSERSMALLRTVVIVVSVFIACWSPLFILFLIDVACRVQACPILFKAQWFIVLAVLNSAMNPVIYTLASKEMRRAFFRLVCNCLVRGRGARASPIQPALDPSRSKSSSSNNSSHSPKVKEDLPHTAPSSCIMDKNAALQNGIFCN
Description: as §1, §2

[5] = molecular target: T4, human S1P receptor EDG-1 (S1P1) (Homo sapiens, UniProt P21453); assay: S1P receptor profiling, GTP[γ-35S] binding SPA; format: biochemical; parameters: key to S1P1 mode of action: Agon = agonist; conditions: for pEC50: membranes of transfected CHO or RH7777 cells
T4 construct: expressed in transfected cells
T4 sequence (P21453 whole entry): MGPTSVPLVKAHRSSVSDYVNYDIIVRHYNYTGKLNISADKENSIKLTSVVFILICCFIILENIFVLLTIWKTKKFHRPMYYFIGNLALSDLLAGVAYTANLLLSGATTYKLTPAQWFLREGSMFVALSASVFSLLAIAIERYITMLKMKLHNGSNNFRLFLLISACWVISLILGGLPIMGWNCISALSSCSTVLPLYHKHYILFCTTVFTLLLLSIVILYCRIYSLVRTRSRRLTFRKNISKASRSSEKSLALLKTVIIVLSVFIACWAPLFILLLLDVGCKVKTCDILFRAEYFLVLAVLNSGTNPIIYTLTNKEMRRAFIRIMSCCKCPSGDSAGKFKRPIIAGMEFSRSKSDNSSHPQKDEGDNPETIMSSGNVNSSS
Description: as §1, §2

| S1P4 mode of action [2] | pEC50 [2] | S1P5 mode of action [3] | pEC50 [3] | S1P3 mode of action [4] | pEC50 [4] | S1P1 mode of action [5] | pEC50 [5] | Structure (SMILES) | dose giving depletion of peripheral blood lymphocytes by more than 50% [1] [mg/kg] |
| --- | --- | --- | --- | --- | --- | --- | --- | --- | --- |
|  |  |  |  |  |  |  |  | CCCCCCCOc1ccc(CC[C@@](C)(N)[C@@H](C)O)cc1 [Example 1, (2R,3R)-3-Amino-5-(4-heptyloxy-phenyl)-3-methyl-pentan-2-ol] | 0.07 |
|  |  |  |  |  |  |  |  | C[C@H](O)[C@](C)(N)CCc1ccc(OCCCCc2ccccc2)cc1 [Example 15, (2S,3R)-3-Amino-3-methyl-5-[4-(4-phenyl-butoxy)-phenyl]-pentan-2-ol] | 0.6 |
|  |  |  |  |  |  |  |  | C[C@@H](O)[C@](C)(N)CCc1ccc(OCCc2ccc(-c3ccccc3)cc2)cc1 [Example 17, (2R,3R)-3-Amino-5-[4-(2-biphenyl-4-yl-ethoxy)-phenyl]-3-methyl-pentan-2-ol] | 0.2 |
| Agon | 9.40 | Agon | 9.82 | Agon | 8.85 | Agon | 10.15 | CCCCCCCOc1ccc(CC[C@@](C)(N)[C@H](C)OP(=O)(O)O)cc1 [Example 19, Phosphoric acid mono-[(1S,2R)-2-amino-4-(4-heptyloxy-phenyl)-1,2-dimethyl-butyl]ester] |  |
|  |  |  |  |  |  |  |  | C[C@H](O)[C@](C)(N)CCc1ccc(OCCCCCc2ccccc2)cc1 [Example 13, (2S,3R)-3-Amino-3-methyl-5-[4-(5-phenyl-pentyloxy)-phenyl]-pentan-2-ol] | 0.5 |
| Agon | 9.17 | Agon | 9.54 | Agon | 8.07 | Agon | 9.89 | CCCCCOc1ccc2cc(CC[C@@](C)(N)[C@@H](C)OP(=O)(O)O)ccc2c1 [Example 20, Phosphoric acid mono-[(1R,2R)-2-amino-1,2-dimethyl-4-(6-pentyloxy-naphthalen-2-yl)-butyl]ester] |  |
|  |  |  |  |  |  |  |  | C[C@@H](O)[C@](C)(N)CCc1ccc(OCCCCc2ccccc2)cc1 [Example 14, (2R,3R)-3-Amino-3-methyl-5-[4-(4-phenyl-butoxy)-phenyl]-pentan-2-ol] | 0.1 |
|  |  |  |  |  |  |  |  | CCCCCOc1ccc2cc(CC[C@@](C)(N)[C@@H](C)O)ccc2c1 [Example 12, (2R,3R)-3-Amino-5-(6-pentyloxy-naphthalen-2-yl)-3-methyl-pentan-2-ol] | 0.4 |
| Agon | 9.15 | Agon | 9.13 | Agon | 8.34 | Agon | 9.29 | CCCCCCCOc1ccc(CC[C@@](C)(N)[C@@H](C)OP(=O)(O)O)cc1 [Example 18, Phosphoric acid mono-[(1R,2R)-2-amino-4-(4-heptyloxy-phenyl)-1,2-dimethyl-butyl]ester] |  |
